Consider 1 substance from patent US20070037205A1, “Methods and apparatus for cell based screening” (priority 2001, published 2007).

The subject of this assay is HT-29 cells. Nature of the assay: HT-29 cytotoxicity assay (resazurin), with or without IFN-γ pretreatment. In kind it is cell-based, human. The note with it: IFN-γ treatment alone (data not shown). The procedure: HT-29 cells (ATCC HTB-38) were cultured in McCoy's 5a Medium with 25 mM HEPES and supplemented with 10% fetal calf serum, 1× nonessential amino acids, 2 mM L-glutamine, 1 mM sodium pyruvate, 100 U/ml penicillin/100 ug/ml streptomycin (complete medium) at 37° C. in a humidified 5% CO2 cabinet. The cellular monolayer was washed with PBS and adherent cells were removed by treatment with 0.25% typsin/0.05% EDTA. The cells were collected by centrifugation and resuspended in complete medium. Cell number and viability was determined by Trypan Blue exclusion staining.
Duplicate plates of HT-29 cells were prepared by seeding cells into clear bottom, black walled 96 well tissue culture treated microplates (Corning 3904) at 5000 cells/well in a volume of 150 μl per well. […] Reduction of resazurin due to metabolic activity causes the dye to change from a non-fluorescent to fluorescent product that can be measured at 530 nm excitation and 590 nm emission wavelengths. Relative Fluorescent Units (RFU) was measured in a Fluoroskan Ascent microplate fluorometer (Thermo/Labsystems) in a bottom-read mode with excitation at 530 nm and emission at 590 nm. […]
Extracts that scored positive in the primary screen were evaluated for tumor cell death in a dose-dependent cytotoxicity assay. […] Inhibition of cellular growth was determined using resazurin indicator dye as described above. […]

Turning to “IFN-γ: recombinant human IFN-γ (R & D Systems), sensitizing agent”, the “growth inhibitory effect on HT-29 cells” value was “no growth inhibitory effect”.
